Assay results taken from US9029337B2, “Modulation of factor 7 expression” (Isis Pharmaceuticals, Inc., priority 2007, dated 2015).
Strand notation (5' to 3'): a small letter for the sugar, then the base; units joined by * are phosphorothioate-linked, units joined directly phosphodiester-linked; [ ] holds rarer units or linkages, { } end groups; capitals alone tell only the bases. e = 2'-O-(2-methoxyethyl) (MOE); [5mC] = 5-methylcytosine; d = 2'-deoxy (DNA)

How the values were obtained:
Format in all cases: cell-based
human Factor 7 mRNA [1] = assay: Dose-dependent antisense inhibition of human Factor 7 in HepB3 cells, lipofectin; conditions: HepB3 cells, approx. 16 hours (Table 14)
Procedure: Cells were plated at a density of 4,000 cells per well and treated with lipofectin reagent with 3.125 nM, 6.25 nM, 12.5 nM, 25 nM, 50 nM, and 100 nM concentrations of antisense oligonucleotide, as indicated in Table 3. After a treatment period of approximately 16 hours, RNA was isolated from the cells and Factor 7 mRNA levels were measured by real-time RT-PCR, as described herein. Human Factor 7 primer probe set RTS 2927 (forward sequence: […], incorporated herein as SEQ ID NO: 164; reverse sequence: […], incorporated herein as SEQ ID NO: 165; probe sequence: TGGGTGGTCTCCGCGGCCX, incorporated herein as SEQ ID NO: 166) was used to measure mRNA levels. Factor 7 mRNA levels were adjusted according to total RNA content as measured by RIBOGREEN®. Results are presented as percent inhibition of Factor 7, relative to untreated control cells.
Cells were plated at a density of 4,000 cells per well and transfected using lipofectin reagent with 6.25 nM, 12.5 nM, 25.0 nM, 50.0 nM, and 100.0 nM concentrations of antisense oligonucleotide, as indicated in Table 7. After a treatment period of approximately 16 hours, RNA was isolated from the cells and Factor 7 mRNA levels were measured by real-time RT-PCR, as described herein. Human Factor 7 primer probe set RTS 2927 was used to measure mRNA levels. Factor 7 mRNA levels were adjusted according to total RNA content as measured by RIBOGREEN®. Results are presented as percent inhibition of Factor 7, relative to untreated control cells.
(§1) Cells were plated at a density of 4,000 cells per well and transfected using lipofectin reagent with 3.125 nM, 6.25 nM, 12.5 nM, 25 nM, 50 nM, and 100 nM concentrations of antisense oligonucleotide, as specified in Table 14. After a treatment period of approximately 16 hours, RNA was isolated from the cells and Factor 7 mRNA levels were measured by quantitative real-time PCR. Human Factor 7 primer probe set RTS 2927 was used to measure mRNA levels. Factor 7 mRNA levels were adjusted according to total RNA content, as measured by RIBOGREEN®. Results are presented as percent inhibition of Factor 7, relative to untreated control cells.

human Factor 7 mRNA [2] = assay: Dose-dependent antisense inhibition of human Factor 7 in HepB3 cells, electroporation
Procedure: as §1, with “The gapmers were also transfected via electroporation and their dose-dependent inhibition of human Factor 7 mRNA was measured. Cells” for “Cells”, “20,000” for “4,000”, “via electroporation” for “using lipofectin reagent”, “μM,” for “nM,”, “μM” for “nM”, “15.” for “14.”
Cells were plated at a density of 20,000 cells per well and transfected via electroporation with 3.125 μM, 6.25 μM, 12.5 μM, 25 μM, 50 μM, and 100 μM concentrations of antisense oligonucleotide, as specified in […]. After a treatment period of approximately 16 hours, RNA was isolated from the cells and human Factor 7 mRNA levels were measured by quantitative real-time PCR. Human Factor 7 primer probe set RTS 2927 was used to measure mRNA levels. Factor 7 mRNA levels were adjusted according to total RNA content, as measured by RIBOGREEN®. Results are presented as percent inhibition of Factor 7, relative to untreated control cells.

human Factor 7 mRNA [3] = assay: Antisense inhibition of human Factor 7 mRNA in HepB3 cells, 50 nM antisense oligonucleotide, lipofectin; conditions: gapmers targeted to nucleobases 4868 to 4899 of SEQ ID NO: 1, Table 8
Method in brief: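 Seeding density was 4,000 cells per well. Following roughly 24 hours of oligonucleotide treatment, RNA was extracted and Factor 7 message quantified using the RTS 2927 primer probe set. Levels were corrected for RIBOGREEN® total RNA and expressed against untreated controls.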

human Factor 7 mRNA [4] = assay: Antisense inhibition of human Factor 7 with short (14-mer) oligonucleotides in HepB3 cells, electroporation 1,000 nM; conditions: electroporation, 1,000 nM antisense oligonucleotide, approximately 24 hours, Factor 7 mRNA relative to untreated control cells
Method in brief: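 14-mer 2-10-2 MOE gapmers (full phosphorothioate, 5-methyl-C) electroporated at 1,000 nM into HepB3 cells at 20,000 cells/well. After ~24 h, Factor 7 mRNA by real-time RT-PCR, normalized to RiboGreen total RNA. Reported as % inhibition relative to untreated cells.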

Substance	% Inhibition (human Factor 7 mRNA [4])	further results
422292 (antisense eG*eT*dT*d[5mC]*dT*dG*d[5mC]*dA*dG*dG*dA*dG*d[5mC]*dG*dG*e[5mC]*e[5mC]*eT*eA*eA) [compound 422292]	–	percent inhibition of Factor 7 mRNA, relative to untreated control cells (human Factor 7 mRNA [1]; 3.125 nM): 13%; percent inhibition of Factor 7 mRNA, relative to untreated control cells (human Factor 7 mRNA [1]; 12.5 nM): 44%; percent inhibition of Factor 7 mRNA, relative to untreated control cells (human Factor 7 mRNA [1]; 25 nM): 63%; percent inhibition of Factor 7 mRNA, relative to untreated control cells (human Factor 7 mRNA [1]; 50 nM): 81%; percent inhibition of Factor 7 mRNA, relative to untreated control cells (human Factor 7 mRNA [1]; 100 nM): 83%; percent inhibition of Factor 7 mRNA, relative to untreated control cells (human Factor 7 mRNA [1]): 21%; percent inhibition of Factor 7 mRNA, relative to untreated control cells (human Factor 7 mRNA [2]; 3.125 μM, approx. 16 hours (Table 15, Example 7)): 36%; percent inhibition of Factor 7 mRNA, relative to untreated control cells (human Factor 7 mRNA [2]; 3.125 μM, approx. 16 hours (Table 16, Example 8 confirmation)): 31%; percent inhibition of Factor 7 mRNA, relative to untreated control cells (human Factor 7 mRNA [2]; 6.25 μM, approx. 16 hours (Table 15, Example 7)): 25%; percent inhibition of Factor 7 mRNA, relative to untreated control cells (human Factor 7 mRNA [2]; 6.25 μM, approx. 16 hours (Table 16, Example 8 confirmation)): 40%; percent inhibition of Factor 7 mRNA, relative to untreated control cells (human Factor 7 mRNA [2]; 12.5 μM, approx. 16 hours (Table 15, Example 7)): 47%; percent inhibition of Factor 7 mRNA, relative to untreated control cells (human Factor 7 mRNA [2]; 12.5 μM, approx. 16 hours (Table 16, Example 8 confirmation)): 68%; percent inhibition of Factor 7 mRNA, relative to untreated control cells (human Factor 7 mRNA [2]; 25 μM, approx. 16 hours (Table 15, Example 7)): 59%; percent inhibition of Factor 7 mRNA, relative to untreated control cells (human Factor 7 mRNA [2]; 25 μM, approx. 16 hours (Table 16, Example 8 confirmation)): 75%; percent inhibition of Factor 7 mRNA, relative to untreated control cells (human Factor 7 mRNA [2]; 50 μM, approx. 16 hours (Table 15, Example 7)): 75%; percent inhibition of Factor 7 mRNA, relative to untreated control cells (human Factor 7 mRNA [2]; 50 μM, approx. 16 hours (Table 16, Example 8 confirmation)): 82%; percent inhibition of Factor 7 mRNA, relative to untreated control cells (human Factor 7 mRNA [2]; 100 μM, approx. 16 hours (Table 15, Example 7)): 86%; percent inhibition of Factor 7 mRNA, relative to untreated control cells (human Factor 7 mRNA [2]; 100 μM, approx. 16 hours (Table 16, Example 8 confirmation)): 83%; % Inhibition of human Factor 7 mRNA levels (human Factor 7 mRNA [3]): 75%
435635 (antisense e[5mC]*eA*dT*dG*dA*dT*dG*dA*dA*dA*dT*d[5mC]*eT*e[5mC]) [compound 435635]	0%	–
435762 (antisense e[5mC]*eA*dG*dG*dT*dG*dT*dT*dA*dA*dG*dG*eT*eG) [compound 435762]	0%	–
435740 (antisense eT*e[5mC]*dA*dT*dT*dT*d[5mC]*dA*dG*dT*dG*dA*eT*eG) [compound 435740]	0%	–
435838 (antisense eT*e[5mC]*d[5mC]*dA*dT*dG*dG*dA*d[5mC]*dA*d[5mC]*dT*eA*eA) [compound 435838]	29%	–
435785 (antisense eA*eG*d[5mC]*dT*dT*d[5mC]*dT*d[5mC]*dA*d[5mC]*d[5mC]*dA*e[5mC]*eG) [compound 435785]	46%	–
435842 (antisense eA*eT*dT*dT*d[5mC]*d[5mC]*d[5mC]*dA*dT*dT*dG*dG*e[5mC]*eA) [compound 435842]	0%	–
435794 (antisense eG*eA*dG*dG*dT*dA*d[5mC]*dA*d[5mC]*dA*dG*dG*e[5mC]*eT) [compound 435794]	26%	–
435802 (antisense eG*eT*d[5mC]*dA*d[5mC]*d[5mC]*dT*dA*dG*dA*d[5mC]*d[5mC]*eA*eA) [compound 435802]	61%	–
435793 (antisense eT*eG*d[5mC]*dA*dG*dT*dA*dG*d[5mC]*dA*dG*dA*eT*eG) [compound 435793]	27%	–
435744 (antisense e[5mC]*eT*dA*d[5mC]*dA*dG*d[5mC]*d[5mC]*dT*d[5mC]*dA*dA*eA*e[5mC]) [compound 435744]	19%	–
435753 (antisense eA*eA*dG*dA*dG*dT*dG*d[5mC]*dA*dG*d[5mC]*dT*eT*eG) [compound 435753]	9%	–
435697 (antisense eA*eG*dT*dA*dG*d[5mC]*d[5mC]*dG*dG*d[5mC]*dA*d[5mC]*eA*eG) [compound 435697]	53%	–
435668 (antisense eT*eG*d[5mC]*d[5mC]*dA*dT*dG*dG*dA*d[5mC]*dA*d[5mC]*eT*e[5mC]) [compound 435668]	75%	–
435722 (antisense eT*eG*dG*dG*d[5mC]*dT*dT*dG*dG*d[5mC]*dT*dG*eA*eA) [compound 435722]	50%	–
435699 (antisense eG*e[5mC]*d[5mC]*d[5mC]*d[5mC]*dA*dG*d[5mC]*dT*dG*dA*d[5mC]*eG*eA) [compound 435699]	48%	–

Substance	% Inhibition (human Factor 7 mRNA [4])	further results
435809 (antisense e[5mC]*eT*dG*dA*d[5mC]*dA*dA*dT*dG*dT*dG*dA*eT*eG) [compound 435809]	5%	–
435808 (antisense e[5mC]*eT*d[5mC]*dT*dG*dG*dA*d[5mC]*dA*d[5mC]*d[5mC]*dG*eG*eG) [compound 435808]	66%	–
435501 (antisense eT*eA*d[5mC]*dT*dG*dG*dG*dA*dG*dA*d[5mC]*d[5mC]*e[5mC]*eT) [compound 435501]	51%	–
435817 (antisense e[5mC]*eT*dG*dA*dG*d[5mC]*dT*dT*dG*dG*d[5mC]*dA*e[5mC]*e[5mC]) [compound 435817]	39%	–
435492 (antisense eA*e[5mC]*d[5mC]*d[5mC]*dT*dG*dG*dT*dG*dT*dA*d[5mC]*eA*e[5mC]) [compound 435492]	45%	–
435658 (antisense eT*e[5mC]*dA*d[5mC]*dT*dG*d[5mC]*dA*dG*dT*dA*d[5mC]*eT*eG) [compound 435658]	60%	–
435729 (antisense eA*e[5mC]*dA*dG*d[5mC]*dA*d[5mC]*dA*d[5mC]*dA*dT*dG*eG*eA) [compound 435729]	30%	–
435487 (antisense eA*eG*dT*d[5mC]*d[5mC]*dT*dG*dG*dG*dT*d[5mC]*dA*eT*e[5mC]) [compound 435487]	36%	–
435663 (antisense e[5mC]*e[5mC]*dA*d[5mC]*dA*dT*dG*dG*dA*dT*dA*dT*eT*e[5mC]) [compound 435663]	50%	–
435791 (antisense eA*eT*dG*dA*dG*dA*dA*dA*dT*dG*d[5mC]*dT*eT*eT) [compound 435791]	0%	–
435648 (antisense eG*eA*dA*dG*d[5mC]*dA*dG*dA*dT*dA*dT*dA*eG*eG) [compound 435648]	0%	–
435675 (antisense eT*eG*dT*d[5mC]*dG*dA*dA*dA*d[5mC]*dA*dG*dT*eG*eG) [compound 435675]	24%	–
435841 (antisense e[5mC]*eT*d[5mC]*dG*dG*dA*d[5mC]*dA*dA*dA*dA*dG*eA*eG) [compound 435841]	1%	–
435784 (antisense e[5mC]*e[5mC]*dT*dA*dA*dG*dT*dG*dT*dG*d[5mC]*dT*eT*eT) [compound 435784]	17%	–
435484 (antisense e[5mC]*e[5mC]*dT*dG*dG*dG*dT*d[5mC]*dA*dT*d[5mC]*dA*eG*e[5mC]) [compound 435484]	45%	–
